# pIC50: −log10 of the molar value.
# Test system: S. typhi GFP reporter counter-screen, fluorescence, 4 h
# Experiment: S. typhi counter-screen signal inhibition – fluorescence, 4 h, counter-screen for PhoP regulon inhibitor project, dose response (AID 2384)
row,Structure (SMILES),pIC50
1,CCn1cc(C(=O)NCCCN(C)C)c(=O)c2cc(F)c(N3CCN(C)CC3)cc21,4.02
2,C#CCOCCOCCOCCNc1nc(N2CCN(C(=O)C(Cc3ccc(O)cc3)n3cc(C(N)CC(C)C)nn3)CC2)nc(N2CCN(C(=O)C(Cc3cc4ccccc4[nH]3)n3cc(C(N)Cc4ccc(O)cc4)nn3)CC2)n1 (stereo unspecified),4.42
3,O=C(NCCCN1CCOCC1)c1sc2cc(Cl)ccc2c1Cl,4.09
4,O=C(N/N=C/c1cc(Cl)ccc1O)c1cccnc1,4.68
5,C#CCOCCOCCOCCNc1nc(N2CCN(C(=O)CCCCCCCCCCNC(=O)[C@H](CCCCN)n3cc(C[C@@H](C)CC)nn3)CC2)nc(N2CCN(C(=O)CCCCCCCCCCNC(=O)[C@H](CCCN=C(N)N)n3cc(C[C@@H](C)CC)nn3)CC2)n1,3.99
6,COc1ccc(Cc2nnc(N/N=C/c3ccc(O)cc3)[nH]c2=O)cc1OC,4.08
7,C#CCOCCOCCOCCNc1nc(N2CCN(C(=O)[C@H](Cc3cc4ccccc4[nH]3)n3cc([C@@H](N)C(C)CC)nn3)CC2)nc(N2CCN(C(=O)[C@H](Cc3cc4ccccc4[nH]3)n3cc([C@@H](N)Cc4ccc(O)cc4)nn3)CC2)n1 (stereo partly specified),4.73
8,Cc1ccc(NC(=O)COc2ccccc2CNC(C)(C)CC(C)(C)C)cc1,4.08
9,Cc1ccc(CNCCC2=CCCCC2)cc1,4.15
10,NCCCC[C@H]1CN=C(N)N1CCC12CC3CC(CC(C3)C1)C2,4.06
11,Cc1cc(OCCCCCN2CCCC2)ccc1Cl,4.29
12,CCCCc1ccc2[nH]cc(CCN)c2c1,4.11
13,c1cc2c(cc1C1CCCCC1)c1c3n2CCCNC3CCC1 (stereo unspecified),4.69
14,O=C(C[n+]1cc(Br)cc2ccccc21)c1ccc(F)cc1,4.12
15,CC(=O)Nc1ccc(S(=O)(=O)NNc2cccc(C)c2)cc1,4.56
16,CCCCCCCCCCOC(=O)Cn1c(COc2cccc(C)c2)[n+](C)c2ccccc21,5.01
17,CN1CC(C(=O)c2ccc(Cl)cc2)C(c2ccc(Cl)cc2Cl)C1 (stereo unspecified),4.63
18,Cc1cc(N=Nc2ccc(C)c(N=Nc3cc(C)c(N)cc3N)c2)c(N)cc1N,4.24
19,O=C(CNC(=O)c1cccc(F)c1)N/N=C/c1ccc([N+](=O)[O-])s1,4.43

row,Structure (SMILES),pIC50
1,CC(c1cccnc1)N(CCN(C)C)C(=O)Nc1ccc(Cl)c(Cl)c1 (stereo unspecified),4.01
2,C[C@H]1c2cccc(O)c2C(O)=C2C(=O)[C@]3(O)C(O)=C(C(N)=O)C(=O)[C@@H](N(C)C)C3[C@@H](O)C21 (stereo partly specified),6.17
3,CN1CCN(c2ccc(NC(=O)CSc3ccccc3)cc2F)CC1,3.98
4,O=[N+]([O-])c1cc([N+](=O)[O-])c2cccnc2c1Oc1ccccc1O,4.38
5,CC(=O)Oc1ccccc1C(=O)Nc1ncc([N+](=O)[O-])s1,4.04
6,CCCCc1ccc(NC2=NCCCS2)cc1,4.09
7,c1ccc(CN2CCC(Nc3nc(-c4cccs4)nc4ccccc34)CC2)cc1,4.43
8,CC1(C)N=C(N)NC(Nc2ccc(Br)cc2)=N1,3.96
9,Cc1nonc1C(=O)N/N=C/c1ccc([N+](=O)[O-])o1,4.28
10,CCCCCCCCCCOC(=O)Cn1c(COc2ccccc2C)[n+](C)c2ccccc21,4.98
11,CN(C)CCCn1c(SCC(=O)N2c3ccccc3Sc3ccccc32)nc2ccccc2c1=O,4.33
12,COc1ccc(Nc2cc(C)nc(NCc3ccccc3)n2)cc1,4.41
13,CC(Nc1nc(N2CCCC2)nc2ccccc12)c1ccccc1 (stereo unspecified),4.12
14,CN1CCN(C(=O)CSc2ccc(Cl)cc2)CC1,3.95
15,Cc1[nH]c2ccc(OC(F)(F)F)cc2c1CCNCc1ccc(Cl)cc1,4.69
16,C#CCOCCOCCOCCNc1nc(N2CCN(C(=O)[C@H](CCCCN)n3cc([C@@H](N)CO)nn3)CC2)nc(N2CCN(C(=O)[C@H](Cc3cc4ccccc4[nH]3)n3cc([C@@H](N)Cc4ccc(O)cc4)nn3)CC2)n1,4.03
17,CC(=O)NC(c1cccc([N+](=O)[O-])c1)c1ccc2cccnc2c1O (stereo unspecified),4.00
18,Cc1cc(N2CCC(C)CC2)nc2cccc(O)c12,4.10
19,Cc1ccc(O)c(Nc2c3ccccc3nc3ccccc23)c1,4.30

row,Structure (SMILES),pIC50
1,Cc1ccc(C(C[N+](=O)[O-])c2c(N)n(C)c(=O)n(C)c2=O)cc1 (stereo unspecified),4.21
2,CCn1cc(C(=O)O)c(=O)c2ccc(C)nc21,4.08
3,O=C(N/N=C/c1ccccn1)c1cccs1,4.18
4,O=C(N/N=C/c1cc(Cl)ccc1O)c1ccncc1,4.76
5,Cc1cc(C)c(NC(=O)C[N+](C)(C)CC(O)COc2cccc3ccccc23)c(C)c1 (stereo unspecified),4.20
6,O=C(Nc1nc(-c2ccccn2)cs1)c1ccc(Br)s1,4.84
7,CCCCCCCCCCOC(=O)Cn1c(COc2ccc(C)cc2)[n+](C)c2ccccc21,4.74
8,NC1=NC[C@H](Cc2ccccc2)N1CCCCC1CCCCC1,4.71
9,CN(C)c1ccc(Nc2nc(N)c3ccccc3n2)cc1,4.11
10,CS(=O)(=O)c1ccc([C@@H](O)[C@@H](CF)NC(=O)C(Cl)Cl)cc1,5.29
11,CN1CCN(C2Cc3cc(F)ccc3Sc3ccc(Cl)cc32)CC1 (stereo unspecified),4.46
12,CCN1CCN(Cc2ccc(NC(=O)c3ccc(C)c(NC(=O)C(=O)c4c[nH]c5ccccc45)c3)cc2C(F)(F)F)CC1,4.23
13,NC(N)=Nc1nc(-c2ccccc2)c2cc(Cl)ccc2n1,4.04
14,OCCCNc1c2ccccc2nc2ccccc12,3.96
15,O=[N+]([O-])c1cc(Cl)cc(/C=N/NC(=S)Nc2ccc(S(=O)(=O)N3CCOCC3)cc2)c1O,4.29
16,O[C@@H](c1cc(C(F)(F)F)nc2c(C(F)(F)F)cccc12)[C@H]1CCCCN1,4.42
17,Cc1ccc(S(=O)(=O)NNc2ccccc2)cc1,4.05
18,CCn1cc(C(=O)O)c(=O)c2cc3c(cc21)OCO3,4.09

# Source: PubChem BioAssay AID2384 (Southern Research Specialized Biocontainment Screening …, 2010)
